{
  "source": "patent US20080289052A1",
  "about": "“Method of Constructing Animal Having Cancer Cells Transplanted Thereinto” (priority 2004, published 2008)",
  "system": "cancer cells A-549",
  "experiment": "Anti-tumor agent test in nude mice transplanted subcutaneously with an A-549 cancer cells sheet",
  "type": "in vivo",
  "method": "A cell culture base was coated with the temperature-responsive polymer poly(N-isopropylacrylamide) in an amount of 1.9 μg/cm^2 and the cancer cells A-549 was cultivated (2×10^4 cells were seeded; 37° C. in 5% CO2). Three days later, the cancer cells (A-549) on the culture base were confirmed to have become confluent; thereafter, a poly(vinylidene difluoride) [PVDF] membrane not coated with a fibrin gel was gently placed over the cultured cell sheet so that the cultured cancer cells adhered to it; then, the cell culture base was cooled at 20° C. for 60 minutes. After the cooling, a sheet of cancer cells (7 mm×17 mm×2 mm; 5×10^5 cells) was detached together with PVDF membrane. The back of each of 10 nude mice was incised linearly beneath the skin and the subcutaneous tissue was detached with forceps to create a pocket, into which the above-described cancer cells sheet was inserted. After the inserting, the incised part was sutured to complete the transplantation. The dimensions of the tumor that developed after the transplantation were measured over the skin with a micrometer and the volume of the tumor was calculated assuming that it was an ellipsoid. The volume of the tumor was also calculated, this time on the assumption that it was a cylindroid (volume of cylindroid=n/4×major axis of the tumor×minor axis of the tumor×thickness of the tumor). Four weeks after the transplantation, the mean volume of ellipsoid was 578.7+322.8 mm^3, the mean volume of cylindroid was 1258.7+897.9 mm^3, and the mean tumor weight was 785.4±394 mg. The decrease in the tumor volume that occurred immediately after the transplantation as shown in FIG. 1 (tumor assumed as an ellipsoid) and FIG. 2 (as a cylindroid) was absent and the tumor grew bigger as more days elapsed after the transplantation.\nThe cancer cells transplanted animals prepared in Example 2 were administered a total of four times on a once-a-week basis with 3 mg of 5-fluorouracil (5-FU), a known anti-tumor agent, through the tail vein as it was dissolved in 0.3 ml of 1% ethyl alcohol containing physiological saline. Four weeks after the administration, the mean volume of ellipsoid was 279.6±127.1 mm^3, the mean volume of cylindroid was 619.3±262.9 mm^3, and the mean tumor weight was 369.3±123 mg. As it turned out, the cancer cells transplanted animals described in the present invention got the volume and weight of the tumor to be reduced by receiving the anti-tumor agent. Obviously, the cancer cells transplanted animals of the present invention are useful in selecting an effective anti-tumor agent.",
  "key": {"[1]": {"details": "A-549 cell sheet transplanted nude mice of Example 2, 3 mg through the tail vein once a week, four times, four weeks after the administration"}},
  "data": [
    {"smiles": "O=c1[nH]cc(F)c(=O)[nH]1", "note": "[5-fluorouracil]", "values": [
      {"measurement": "mean tumor weight", "setting": "[1]", "result": "369.3 ± 123", "unit": "mg"},
      {"measurement": "mean volume of cylindroid (tumor volume)", "setting": "[1]", "result": "619.3±262.9", "unit": "mm^3"},
      {"measurement": "mean volume of ellipsoid (tumor volume)", "setting": "[1]", "result": "279.6±127.1", "unit": "mm^3"},
      {"measurement": "volume and weight of the tumor (effect of receiving the anti-tumor agent)", "setting": "A-549 cell sheet transplanted nude mice, compared with untreated animals of Example 2", "result": "reduced"}
    ]}
  ]
}
